Assays:
[1] = tested on: animals; details: cited from earlier work
[2] = tested on: human lymphocytes; details: human lymphocytes in-vitro after metabolic activation; cited from earlier work
[3] = tested on: mice fed with a high cholesterol diet; details: oral dose of 80 mg/kg; cited from earlier work
[4] = tested on: mice; details: cited from earlier work
[5] = tested on: rats; details: cited from earlier work
[6] = Toxicity of 2,4,5-trimethoxyphenylpropane compared with β-asarone

In the case of `C/C=C\c1cc(OC)c(OC)cc1OC` [β-asarone], the tumor induction ([1]; after oral administration) is given as “induce tumors in the duodenal region”, the carcinogenicity ([1]; animals) is given as “carcinogenic” and the chromosome damaging effect [2] is given as “chromosome damaging effect”.
In the case of `C/C=C/c1cc(OC)c(OC)cc1OC` [α-asarone, trans-2,4,5-trimethoxyphenyl-1-propene], the decrease of cholesterol [3] is listed as 49.6%, the decrease of triglycerides [3] is listed as 83.7% and the “high density lipoprotein (HDL)-cholesterol” value [3] is listed as “increased”. The toxicity [4] was “no toxic effect is observed” and the toxicity [5] was “no toxic effect is observed”.
For `CCCc1cc(OC)c(OC)cc1OC` [2,4,5-trimethoxyphenylpropane, 1-propyl-2,4,5-trimethoxybenzene], the “toxicity relative to β-asarone” value [6] was “five times less toxic”.
